These results are taken from US20230022796A1 (Merck Patent GmbH, priority 2019, published 2023).

The subject of assay [1] is CHO cell line producing mAb3. Put plainly: Fed-batch cell performance (viable cell density), clone 3 producing mAb3. Particulars: mAb3, feed with 400 μM additive. In kind it is cell-based, Chinese hamster. Here is the method:
Four different clones of Chinese hamster ovary (CHO) cells expressing three different monoclonal antibodies (mAb) and a fusion protein were tested. Cells were cultivated in spin tubes between 14 and 20 days at 37° C., 5% CO2, and 80% humidity. As starting cell density, 3×10^5 cells/mL in 30 mL Cellvento®4CHO media (pH 7.0±0.1) was used for clone 1 and 2 producing mAb1 and mAb2, respectively (Cellvento® Platform). Cells were cultivated at an agitation rate of 320 rpm and were fed on day 3, 5, 10, 12 and 14 with 3% volume of Cellvento® 4Feed (v/v) and on day 7 with 6% (v/v) of the feed. Clone 3 and 4 producing mAb3 and a fusion protein were inoculated at the same cell density in 30 mL Ex-Cell® Advanced Media (pH 7.2±0.1) while agitation was set to 230 rpm. Clones 3 and 4 were fed with 5% Ex-Cell® Advanced Feed (v/v) on day 3, 5, 7, 10, 12, 14 and 17. […]
The glucose level was maintained above 4 g/L by adding a specific amount of a 400 g/L glucose stock solution on demand to up to 6 g/L during the week and up to 13 g/L over the weekend. Glucose and titer were detected in the supernatant with the bioprocess analyzer CEDEX Bio HT (Roche, Mannheim, Germany) based on spectrophotometric and turbidometric methods. The viable cell density (VCD) and viability were evaluated with a Vi-CELL™ XR 2.04 cell counter (Beckman Coulter, Fullerton, Calif., USA). […]

Assay [2] deals with CHO cell line producing mAb2. Put plainly: Glycosylation profile (UPLC-MS of released glycans) of mAb2 from fed-batch. In kind it is cell-based, Chinese hamster. Particulars: mAb2, 400 μM additive, day 12. Here is the method: Glycosylation patterns were analyzed by ultra-performance liquid chromatography coupled to a mass spectrometer (UPLC-MS). The purified antibody was denaturated and the glycans were released from the antibody by digestion with peptide N-glycosidase F (PNGase F) followed by labeling the glycans with the GlycoWorks™ RapiFluor-MS™ N-Glycan Kit according to the manufacturer protocol. For the analysis, an UPLC glycan column (2.1×150 mm) that separated the glycans according to their […] was used. The chromatography was performed at 45° C. using 50 mM ammonium formate (A), pH 4.4 solution and an acetonitrile (B) gradient. In detail, at the beginning the ratio of A:B was 20:80 (0 min) and changed to 27:73 at 3 min and 37:63 at 35 min at a flow rate of 0.5 ml/min. From 36.5 min to 39.5 min only A was used as mobile phase and the flow rate was reduced to 0.2 ml/min. Subsequently, the ratio was changed to 20% A:80% B and the flowrate was increased to 0.5 ml/min at 43.1 min until the end of the process at 55 min. The detection was performed by a fluorescence detector with an excitation wavelength of 265 nm and an emission wavelength of 425 nm. The identification of the glycan structures was performed by MS using positive electro spray ionization (ESI), which was calibrated every 30 s with a standard.
Four different clones of Chinese hamster ovary (CHO) cells expressing three different monoclonal antibodies (mAb) and a fusion protein were tested. Cells were cultivated in spin tubes between 14 and 20 days at 37° C., 5% CO2, and 80% humidity. As starting cell density, 3×10^5 cells/mL in 30 mL Cellvento®4CHO media (pH 7.0±0.1) was used for clone 1 and 2 producing mAb1 and mAb2, respectively (Cellvento® Platform). Cells were cultivated at an agitation of 320 rpm and were fed on day 3, 5, 10, 12 and 14 with 3% volume of Cellvento® 4Feed (v/v) and on day 7 with 6% (v/v) of the feed. Clone 3 and 4 producing mAb3 and a fusion protein were inoculated at the same cell density in 30 mL Ex-Cell® Advanced Media (pH 7.2±0.1) while agitation was set to 230 rpm (Ex-Cell® Platform). Clones 3 and 4 were fed with […] Advanced Feed (v/v) on day 3, 5, 7, 10, 12, 14 and 17. […] The pH of all Cellvento® feeds was adjusted to 7.0±0.1 and Ex-Cell® Feeds were adjusted to 8.5±0.1. The glucose level was maintained above 4 g/L by adding a specific amount of a 400 g/L glucose stock solution on demand to up to 6 g/L during the week and up to 13 g/L over the weekend. Glucose and titer were detected in the supernatant with the bioprocess analyzer CEDEX Bio HT (Roche, Mannheim, Germany).
To investigate the glycosylation profile during the fed-batch experiment samples were centrifugated and antibodies and Fc-fusion proteins were purified from the cell culture supernatant using protein A PhyTips® (PhyNexus Inc, San Jose, Calif.). Glycosylation patterns were analyzed as described by ultra-performance liquid chromatography coupled to a mass spectrometer (UPLC-MS) using the GlycoWorks™ RapiFluor-MS™ N-Glycan Kit.
Glycosylation profile on day 12 was visualized since harvest of recombinant produced proteins on day 12 is common. Quantification of the glycans was obtained using the relative peak area of the fluorescence signal. Almost all peaks were assigned to glycan structures according to their mass. Unknown glycan structures and signals without mass detection were summarized as unknown species (not shown). […]

A further assay has as its target FcγRIIIa V176. As to the kind of experiment: Surface plasmon resonance (Biacore) binding of mAb3 from treated cultures to FcγRIIIa. Here is the method:
Binding of samples after 5-ThioFuc treatment was investigated by surface plasmon resonance technology using a Biacore T200 system (GE Healthcare, Uppsala, Sweden). The analysis temperature was set to 25° C. and sample compartment temperature to 15° C. […] The anti-His antibody was further used to capture His-tagged FcγRIIIa V176 ([…]) from AcroBiosystems (Newark, Del., USA).
Binding was recorded continuously, while unspecific binding and injection artefacts were subtracted automatically. Single-cycle kinetics were used with a dissociation time of 600 s at a flow rate of 30 μL/min. Data collection rate was performed at 10 Hz. Following each experiment, both flow cells were regenerated for 30 s with 10 mM glycine-HCl pH 1.5 according to kit instructions. Data of three technical and two biological replicates were fitted with a 1:1 binding model. The global dissociation constant KD was determined from the ratio of the kinetic rate constants for dissociation (kd) and association (ka) values. Data are presented in Table 1 as fold change compared to the control.

Take `C[C@@H]1SC(O)[C@@H](O)[C@H](O)[C@@H]1O` (stereo partly drawn): the “reduced VCD (area under the curve until day 17, compared to the control)” value in assay [1] was “about 13%”. Further, the afucosylation in assay [2] is recorded as 60%. In assay [2], the core-fucosylation was found to be 8%. For the same compound, the Kd stood at 85 nM at FcγRIIIa V176 (mAb3 from culture fed with 50 μM additive, day 5); 63 nM at FcγRIIIa V176 (mAb3 from culture fed with 50 μM additive, day 12); 61 nM on FcγRIIIa V176 (mAb3 from culture fed with 50 μM additive, day 14); 52 nM on FcγRIIIa V176 (mAb3 from culture fed with 200 μM additive, day 5); 40 nM on FcγRIIIa V176 (mAb3 from culture fed with 200 μM additive, day 12); 28 nM at FcγRIIIa V176 (mAb3 from culture fed with 200 μM additive, day 14). Further, the Kd on FcγRIIIa V176 (mAb3 from culture fed with 400 μM additive, day 5) came to 35 nM; on FcγRIIIa V176 (mAb3 from culture fed with 400 μM additive, day 12) it was 32 nM; at FcγRIIIa V176 (mAb3 from culture fed with 800 μM additive, day 5), 40 nM.
